Assay results from EP3797781A1, “USE OF EC-7072 AND SYNERGIC COMPOSITIONS THEREOF IN TREATMENT OF CHRONIC LYMPHOCYTIC LEUKEMIA” (priority 2019, dated 2021).

System: isolated CLL cells
Assay: Western blotting of isolated CLL cells
Type: cell-based, human
Method: Isolated CLL cells were treated with 200 nM EC-7072 for 3, 8 and 12 hours and lysed with lysis buffer [50 mM Tris-HCl (pH 8), 150 mM NaCl, 1 mM EDTA, 1% NP-40, 20 mM NaF, EDTA-free protease inhibitor cocktail and phosSTOPTM (Roche)]. After heat denaturation, 25 µg protein were resolved on 10% and 15% SDS-PAGE gels and transferred to PVDF membranes (Sigma-Aldrich). Membranes were blocked with 5% BSA and incubated overnight at 4 °C with the corresponding primary antibodies (p-PLCγ2 (Y759), p-ERK1/2 (T202/Y204), p-STAT3 (Y705), p-LYN (Y507), STAT3 and GAPDH from Cell Signaling, and PLCγ2, ERK1/2, LYN, BCL-xL and Noxa from Santa Cruz Biotechnology). Blots were developed with secondary antibodies conjugated to IRDye680 or IRDye800 (Li-Cor Biosciences) and signal was detected on an Odyssey scanner.
Levels of phosphorylated and total proteins were quantified following Western blotting by densitometric analysis employing ImageJ software (https://imagej.nih.gov/ij/). To determine relative protein amounts, signal intensities were first normalized to GAPDH and the ratio between phosphorylated and total proteins was then calculated.
Western blot analysis of BCL-xL and Noxa in isolated CLL cells (n = 3) treated with 200 nM EC-7072 for the indicated times was performed (Figure 6E).
The inhibition of the tonic BCR pathway by EC-7072 was evaluated by: • (i) incubating PBMCs from patients with CLL, following treatment with 200 nM EC-7072, for 8 hours. Surface expression of CD79A (Figure 7A), CD79B (Figure 7B) and IgM (Figure 7C) in leukemia cells (n = 5 - 6) was assessed by flow cytometry and the MFI was normalized to the control (DMSO) condition; • (ii) incubating isolated leukemia cells from patients with CLL (n = 10), following treatment with EC-7072 (200 nM), for 8 hours. Phosphorylation levels of p-SYK (Figure 7D), p-BTK (Figure 7E) and p-PLCy2 (Figure 7F) proteins and p-ERK1/2 (Figure 7G), p-AKT (Figure 7H), p-p65 NPκB (Figure 7I) and p-STAT3 (Figure 7J) were evaluated by phosphoflow and the MFI was normalized to the control (DMSO) from each individual patient; • (iii) incubating PBMCs from patients with CLL (n = 8), following treatment with EC-7072 (200 nM), for 8 hours. Viability was determined by DiOC6(3)/PI staining and normalized to the control (DMSO) condition for each individual patient to obtain the mean percentage of viable [DiOC6(3)^+] cells (Figure 7K); • (iv) incubating isolated CLL cells (n = 4) stimulated with CD40L (100 ng/mL) or IL-6 (40 ng/mL) for 15 minutes and detecting respective phosphorylation levels of p65 NF-κB (Figure 7L) and STAT3 (Figure 7M) by phosphoflow to obtain the mean MFI normalized to the control (DMSO) condition for each individual patient; • (v) incubating isolated leukemia cells from 3 patients with CLL, following treatment with 200 nM EC-7072, for 3, 8 and 12 hours. Protein lysates were immunoblotted to detect the phosphorylated (p-LYN, p-PLCγ2, p-STAT3 and p-ERK1/2) and total protein (LYN, PLCγ2, STAT3 and ERK1/2) levels (Figure 7N); • (vi) incubating isolated leukemia cells from 3 patients with CLL, following treatment with 200 nM EC-7072, for 3, 8 and 12 hours and immunoblotting of protein lysates to detect p-LYN, LYN, p-PLCγ2, PLCγ2, p-STAT3, STAT3, p-ERK1/2 and ERK1/2. […]

[1] = 200 nM, 3, 8 and 12 hours, 3 patients

## CO[C@@H]([C@@H]1Cc2cc3cc(O[C@H]4C[C@@H](O[C@H]5C[C@@H](O)[C@H](O)[C@@H](C)O5)[C@H](O)[C@@H](C)O4)c(C)c(O)c3c(O)c2C(=O)[C@H]1O[C@H]1C[C@@H](O[C@H]2C[C@@H](O[C@H]3C[C@](C)(O)[C@H](O)[C@@H](C)O3)[C@@H](O)[C@@H](C)O2)[C@H](O)[C@@H](C)O1)[C@@H](O)C(C)=O [EC-7072, mithramycin SK]
[1]
  levels of p-STAT3 (Western blotting): diminished
  p-LYN, p-PLCγ2 and p-ERK1/2 (Western blotting): time-dependent reduction
  total amount of LYN, PLCγ2 and STAT3: downregulate
200 nM, time-dependent, n = 3
  levels of the antiapoptotic protein BCL-xL: decreased
  levels of the proapoptotic protein Noxa: increase
